Results on two compounds are retold here after patent US20200239530A1, “COMPOUNDS AND METHODS OF MODULATING PROTEIN DEGRADATION” (Vividion Therapeutics, Inc., priority 2017, published 2020).

The target in this experiment is T1, AKAP1 A-kinase anchor protein 1, mitochondrial (Homo sapiens, UniProt Q92667).
T1 construct: Cells were resuspended in cold PBS on ice and sonicated with a probe sonicator to achieve lysis; endogenous in cells
T1 sequence (Q92667 30-903): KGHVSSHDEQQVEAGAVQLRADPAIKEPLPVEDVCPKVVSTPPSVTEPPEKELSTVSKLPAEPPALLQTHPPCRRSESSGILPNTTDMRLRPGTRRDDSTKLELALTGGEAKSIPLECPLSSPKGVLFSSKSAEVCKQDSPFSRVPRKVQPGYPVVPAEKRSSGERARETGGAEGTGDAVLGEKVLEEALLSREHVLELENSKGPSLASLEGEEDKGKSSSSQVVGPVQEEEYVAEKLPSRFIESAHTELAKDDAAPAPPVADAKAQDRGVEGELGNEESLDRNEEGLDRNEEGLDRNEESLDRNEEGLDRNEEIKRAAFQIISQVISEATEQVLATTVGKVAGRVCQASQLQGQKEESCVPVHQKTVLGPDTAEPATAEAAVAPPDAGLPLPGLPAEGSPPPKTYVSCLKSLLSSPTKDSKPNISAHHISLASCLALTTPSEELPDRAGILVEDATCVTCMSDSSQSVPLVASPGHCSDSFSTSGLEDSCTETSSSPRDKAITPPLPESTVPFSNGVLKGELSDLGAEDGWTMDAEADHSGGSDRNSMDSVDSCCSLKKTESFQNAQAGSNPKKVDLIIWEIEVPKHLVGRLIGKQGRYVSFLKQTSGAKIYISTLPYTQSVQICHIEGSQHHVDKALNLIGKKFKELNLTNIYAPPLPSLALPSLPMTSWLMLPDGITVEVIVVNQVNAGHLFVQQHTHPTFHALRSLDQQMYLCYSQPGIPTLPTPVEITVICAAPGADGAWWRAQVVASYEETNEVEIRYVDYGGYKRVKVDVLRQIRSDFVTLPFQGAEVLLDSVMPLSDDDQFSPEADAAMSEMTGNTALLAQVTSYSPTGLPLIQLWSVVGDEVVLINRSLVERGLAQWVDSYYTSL
Briefly: Cysteine liganding, probe competition. The format is binding. In short, it runs like this: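 Probe competition in native proteome: 5 mg/ml lysate, compound 1 hr 25° C, then desthiobiotin iodoacetamide (10 mM stock) 1 hr 25° C; acetone ppt, urea/DTT reduction, iodoacetamide alkylation, trypsin, streptavidin pull-down.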

On to `COc1ccc2c(c1)CCCN2C(=O)CCl` [KB02], for which the Liganded entry (AKAP1 Res# 376, uniprot Q92667) is on record as “YES”.
With `O=C(CCl)Nc1cc(C(F)(F)F)cc(C(F)(F)F)c1` [KBO3], for the setting “uniprot Q92667”, the 100 ave is reported as −0.33, the “500 Max” value was found to be 57.81 and the 500 ave was 45.04. The “100 Max” value (uniprot Q92667, in % (unit assumed)) came out at 18.92.
